Experimental data as given in patent US5541199A, “Chroman-2-ylmethylamino derivatives” (American Home Products Corporation, priority 1995, dated 1996).

Assays:
[1] = target: T1, 5-HT1a (Homo sapiens, UniProt P08908); experiment: 5-HT1a IC50; format: binding
T1 sequence (P08908 1-422): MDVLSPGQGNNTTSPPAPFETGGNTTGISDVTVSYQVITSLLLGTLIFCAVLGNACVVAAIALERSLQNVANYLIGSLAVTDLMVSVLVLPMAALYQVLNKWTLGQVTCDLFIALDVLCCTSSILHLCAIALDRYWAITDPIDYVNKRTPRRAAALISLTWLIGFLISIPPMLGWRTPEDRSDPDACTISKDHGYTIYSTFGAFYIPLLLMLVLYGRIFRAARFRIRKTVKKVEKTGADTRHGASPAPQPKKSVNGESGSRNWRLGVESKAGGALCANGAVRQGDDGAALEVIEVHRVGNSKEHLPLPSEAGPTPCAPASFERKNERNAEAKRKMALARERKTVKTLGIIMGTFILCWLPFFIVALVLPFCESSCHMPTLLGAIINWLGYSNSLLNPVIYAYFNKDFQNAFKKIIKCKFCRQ

[2] = tested on: α1; experiment: α1 IC50; format: binding
[3] = target: T2, D2 (Rattus norvegicus, UniProt P61169); experiment: Affinity for the dopamine autoreceptor: 3H-quinpirole (Quin.) binding, homogenized rat striatal brain tissue; set-up: homogenized rat striatal brain tissue; from tissue; host or cells: rat striatal brain tissue, homogenized
T2 sequence (P61169 whole entry): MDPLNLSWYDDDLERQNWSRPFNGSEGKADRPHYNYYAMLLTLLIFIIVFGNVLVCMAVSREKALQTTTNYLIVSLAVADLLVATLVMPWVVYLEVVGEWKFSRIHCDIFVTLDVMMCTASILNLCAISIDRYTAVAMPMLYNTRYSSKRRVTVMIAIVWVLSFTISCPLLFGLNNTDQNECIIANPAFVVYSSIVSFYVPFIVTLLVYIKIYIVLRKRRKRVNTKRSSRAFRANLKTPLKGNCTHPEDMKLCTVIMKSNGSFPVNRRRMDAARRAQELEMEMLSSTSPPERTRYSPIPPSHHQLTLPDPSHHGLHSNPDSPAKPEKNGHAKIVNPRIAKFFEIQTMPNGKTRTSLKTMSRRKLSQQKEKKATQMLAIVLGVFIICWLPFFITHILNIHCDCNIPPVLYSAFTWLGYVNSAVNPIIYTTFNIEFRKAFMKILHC

[4] = target: T2, D2; experiment: Affinity for the dopamine D-2 receptor: 3H-spiroperidol (Spiper.) binding, homogenized limbic brain tissue; set-up: homogenized limbic brain tissue is incubated with; from tissue; host or cells: limbic brain tissue, homogenized

- IC50 [1]: 303 nM
- IC50 [2]: 277 nM
- IC50 ([3]; 3H-quinpirole, rat striatal brain tissue): 9.29 nM
- Ratio ([3]; not defined in print, values match D2 Spiper. IC50 / D2 Quin. IC50): 234
- IC50 [4]: 2180 nM
Structure (SMILES): O=C1CCC(=O)N1CCCNCC1CCc2ccc(O)cc2O1 (centres unmarked) [Example 3d, 1-{3-[(7-Hydroxy-chroman-2-ylmethyl)-amino]-propyl}-pyrrolidine-2,5-dione]
